The record followed here is ChEMBL document CHEMBL3102761, “Discovery of Clinical Candidate GSK1842799 As a Selective S1P1 Receptor Agonist (Prodrug) for Multiple Sclerosis” (ACS Med Chem Lett, 2013).

Converted amounts (≈) assume the structure as drawn. The source made the active and inactive calls. The calls are words filed in the database; no cut-off is given here.

The Cmax is the highest concentration seen after dosing. As a reminder, the EC90 is the concentration needed for an effect of 90%. By EC50 is commonly meant the midpoint of the concentration-response curve.

The species entered for data set [1] is Homo sapiens. Put plainly: Selectivity ratio for S1P3R (unknown origin) to S1P1R (unknown origin).
The target of data set [2] is T1, Sphingosine 1-phosphate receptor 3 (Homo sapiens, UniProt Q99500). Put plainly: Agonist activity at S1P3R (unknown origin) assessed as [33P] binding activity.
Target sequence in this assay (Q99500 whole entry, looked up): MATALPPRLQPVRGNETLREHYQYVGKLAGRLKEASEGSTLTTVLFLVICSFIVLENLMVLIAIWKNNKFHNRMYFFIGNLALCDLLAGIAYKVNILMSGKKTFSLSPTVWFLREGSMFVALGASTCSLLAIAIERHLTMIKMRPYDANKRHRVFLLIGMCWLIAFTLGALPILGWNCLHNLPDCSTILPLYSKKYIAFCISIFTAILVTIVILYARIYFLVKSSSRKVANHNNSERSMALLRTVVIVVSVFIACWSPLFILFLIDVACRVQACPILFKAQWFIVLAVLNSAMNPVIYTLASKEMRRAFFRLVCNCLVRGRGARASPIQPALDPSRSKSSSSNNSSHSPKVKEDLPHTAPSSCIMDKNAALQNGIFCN
For data set [3], the target named is T2, Sphingosine 1-phosphate receptor 1 (Homo sapiens, UniProt P21453). Description: Agonist activity at S1P1R (unknown origin) assessed as [33P] binding activity.
Data set [4] is described as follows: Inhibition of CYP450 (unknown origin). It counts as ADME. Particulars: human.
For data set [5], the system named is Mus musculus. Description: Reduction in clinical symptoms in MOG peptide experimental autoimmune encephalitis (EAE) mouse multiple sclerosis disease model at 3 mg/kg, po qd. It counts as functional, organism-based. Set-up: dose 3 mg/kg.
Data set [6] concerns Liver microsome. Description: Metabolic stability in human liver microsomes. In kind it is ADME.
Data set [7] deals with Plasma. Put plainly: Plasma concentration in cynomolgus monkey assessed as phosphorylated compound at 3.8 mg/kg, po administered as single dose. It counts as ADME, organism-based, Macaca fascicularis. Set-up: dose 3.8 mg/kg, route oral. As to conditions: in vivo.
Data set [8] relates to Liver microsome. Put plainly: Metabolic stability in rat liver microsomes. It counts as ADME.
Data set [9] concerns Plasma. Put plainly: Plasma concentration in rat assessed as phosphorylated compound at 3 mg/kg, po administered as single dose. It counts as ADME, organism-based. Set-up: dose 3 mg/kg, route oral. Particulars: in vivo.
Data set [10] has as its system Caco-2. Description: Permeability across human Caco2 cells. In kind it is ADME, cell-based.
Data set [11] has as its system Mus musculus. Description: Induction of lymphopenia in C57BL/6 mouse at 0.1 mg/kg, po at 6 hrs post-dose relative to vehicle-treated control. It counts as functional, organism-based. Set-up: dose 0.1 mg/kg.
In data set [12] the test system is Plasma. Description: Plasma concentration in dog assessed as phosphorylated compound at 5 mg/kg, po administered as single dose. It counts as ADME, organism-based, Canis lupus familiaris. The arrangement: dose 5 mg/kg, route oral. Particulars: in vivo.
Data set [13] can be described thus: Aqueous solubility of the compound. In kind it is physicochemical. As to conditions: buffer.
The nature of data set [14]: Cmax in cynomolgus monkey at 3.8 mg/kg, po administered as single dose. It counts as ADME, organism-based, Macaca fascicularis. The arrangement: dose 3.8 mg/kg, route oral. As to conditions: in vivo.
In data set [15] the test system is Cynomolgus monkey. Put plainly: Induction of […] in po dosed cynomolgus monkey. It counts as functional, Macaca fascicularis.
Data set [16] has as its system Liver microsome. Description: Metabolic stability in dog liver microsomes. It counts as ADME, Canis lupus familiaris. On the technique in general: Liver microsomes are a subcellular fraction often used to study metabolism.
Data set [17] in a line: Metabolic stability in cynomolgus monkey liver microsomes. In kind it is ADME, Macaca fascicularis, Microsome.
For data set [18], the system named is Mus musculus. Description: Induction of lymphopenia in po dosed C57BL/6 mouse measured at 6 hrs post-dose relative to vehicle-treated control. It counts as functional, organism-based.
The target of data set [19] is Sphingosine 1-phosphate receptor 5 (Homo sapiens, UniProt Q9H228). Put plainly: Agonist activity at human S1P5R expressed in HEK293T cells assessed as [35S]GTPgammaS binding after 30 mins by scintillation counting. It counts as functional, cell-based, HEK-293T. In general terms: GTPγS is a poorly hydrolysed GTP analogue; its binding reports G protein activation.
Data set [20] concerns the target T2, Sphingosine 1-phosphate receptor 1. Description: Agonist activity at human S1P1R expressed in HEK293T cells assessed as [35S]GTPgammaS binding after 30 mins by scintillation counting. In kind it is functional, cell-based, HEK-293T.
Data set [21] has as its target T1, Sphingosine 1-phosphate receptor 3. Put plainly: Agonist activity at human S1P3R expressed in HEK293T cells assessed as [35S]GTPgammaS binding after 30 mins by scintillation counting. In kind it is functional, cell-based, HEK-293T.
Target sequence in this assay (Q99500 whole entry): as the sequence (Q99500 whole entry, looked up) above
The species entered for data set [22] is Homo sapiens. Description: Selectivity ratio of EC50 for S1P3R (unknown origin) to EC50 for S1P1R (unknown origin).
The subject of data set [23] is Mus musculus. Description: Induction of lymphopenia in C57BL/6 mouse at 10 mg/kg, po at 6 hrs post-dose.
The target in data set [24] is T3, Sphingosine 1-phosphate receptor 4 (Homo sapiens, UniProt O95977).
T3 sequence (O95977 whole entry): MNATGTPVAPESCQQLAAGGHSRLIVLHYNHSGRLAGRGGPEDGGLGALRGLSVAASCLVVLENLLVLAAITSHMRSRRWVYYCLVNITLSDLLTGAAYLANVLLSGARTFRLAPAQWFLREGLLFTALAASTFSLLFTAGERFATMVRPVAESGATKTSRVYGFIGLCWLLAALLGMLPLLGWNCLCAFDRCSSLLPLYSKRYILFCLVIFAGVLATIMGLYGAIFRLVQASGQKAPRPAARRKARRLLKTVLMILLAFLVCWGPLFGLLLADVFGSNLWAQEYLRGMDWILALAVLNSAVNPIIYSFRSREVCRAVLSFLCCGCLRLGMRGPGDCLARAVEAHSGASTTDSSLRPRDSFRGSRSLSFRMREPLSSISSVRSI
Description: Agonist activity at human S1P4R expressed in HEK293T cells assessed as [35S]GTPgammaS binding after 30 mins by scintillation counting. In kind it is functional, cell-based, HEK-293T.

Data set [25] is filed under the species Homo sapiens. Description: Selectivity ratio for human Sphk1 to human Sphk2.

T2 sequence (P21453 whole entry): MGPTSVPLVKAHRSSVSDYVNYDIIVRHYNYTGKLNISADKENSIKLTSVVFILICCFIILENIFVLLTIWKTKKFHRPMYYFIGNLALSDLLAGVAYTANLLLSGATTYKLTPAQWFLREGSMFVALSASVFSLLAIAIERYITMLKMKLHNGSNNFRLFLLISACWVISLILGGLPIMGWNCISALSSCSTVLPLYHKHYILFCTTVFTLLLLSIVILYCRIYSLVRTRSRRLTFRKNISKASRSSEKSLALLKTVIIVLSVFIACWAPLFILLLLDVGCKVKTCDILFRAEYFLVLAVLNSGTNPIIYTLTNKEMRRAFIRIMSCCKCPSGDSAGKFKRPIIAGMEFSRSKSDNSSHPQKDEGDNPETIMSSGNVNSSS
Sequence of Sphingosine 1-phosphate receptor 5 (Q9H228 whole entry): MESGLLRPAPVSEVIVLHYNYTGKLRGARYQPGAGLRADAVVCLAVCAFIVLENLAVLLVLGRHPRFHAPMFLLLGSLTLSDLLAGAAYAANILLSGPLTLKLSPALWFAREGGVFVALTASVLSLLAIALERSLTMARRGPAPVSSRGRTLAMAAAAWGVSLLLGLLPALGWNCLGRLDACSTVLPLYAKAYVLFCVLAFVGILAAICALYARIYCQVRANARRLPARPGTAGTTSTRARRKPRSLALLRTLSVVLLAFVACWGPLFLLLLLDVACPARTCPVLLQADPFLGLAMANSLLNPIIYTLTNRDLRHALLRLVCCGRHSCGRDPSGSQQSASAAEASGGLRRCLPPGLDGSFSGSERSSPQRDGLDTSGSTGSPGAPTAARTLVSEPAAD

As for `C[C@](N)(COP(=O)(O)O)c1ncc(-c2ccc(OCc3ccc(-c4ccccc4)cc3)c(C(F)(F)F)c2)o1`, the Selectivity ratio in data set [1] is > 8000. Moreover, the Activity is > 10 µM in data set [2] and 1.1 nM in data set [3].
On to `CCCCCCCCOc1ccc(-c2cc([C@@](C)(N)COP(=O)(O)O)[nH]n2)cc1C(F)(F)F`, for which, in [1], the Selectivity ratio was > 12000. Besides, the Activity in data set [2] was > 10 µM; in data set [3] it was 0.83 nM.
Consider `CCCCCCCCOc1ccc(-c2nnc([C@@](C)(N)CO)s2)cc1C(F)(F)F`, for which the “inhibition (INH)” value in [4] is listed as “Not Active”. The result in data set [5] and in data set [11] was Active. Further, the Stability result in [6], in data set [8], in [16] and in data set [17] was “Stable” in each case. The Cp in data set [7], in [9] and in data set [12] was 10 ng/mL each time. The permeability result in data set [10] was “permeable”. Moreover, in [13], the solubility result was “soluble”. The same molecule yielded a Cmax in data set [14] of 50.9 ng/mL. In addition, in data set [15], the EC90 is 0.0162 µg/mL (≈ 0.0375 µM). In addition, the Activity result in [18] was “Dose-dependent effect”.
`N[C@@H](COP(=O)(O)O)c1nc(-c2ccc(OCc3ccc(-c4ccccc4)cc3)c(C(F)(F)F)c2)c[nH]1`: the Selectivity ratio in data set [1] was determined as 2170. Also, the Activity stood at 0.65 µM in data set [2] and 0.3 nM in [3].
`CCCCCCCCOc1ccc(-c2cnc([C@@](C)(N)COP(=O)(O)O)s2)cc1C(F)(F)F`: the Selectivity ratio in data set [1] came out at 1670. The Activity in data set [2] amounted to 0.3 µM; in data set [23], 98%; in data set [3] it was 0.18 nM. In addition, the EC50 was 2 nM in data set [19], 0.44 nM in data set [20], > 3000 nM in data set [21] and 3.6 nM in data set [24]. The Ratio EC50 in data set [22] was > 6800.
As to `CCCCCCCCOc1ccc(-c2cc([C@@](C)(N)COP(=O)(O)O)on2)cc1C(F)(F)F`, the Selectivity ratio in data set [1] was determined as 1210. For the same molecule, the Activity in [2] was 0.17 µM; in data set [3] it was 0.14 nM.
On to `C[C@](N)(COP(=O)(O)O)c1ncc(-c2ccc(OCc3ccc(-c4ccccc4)cc3)c(C(F)(F)F)c2)s1`, for which, in data set [1], the Selectivity ratio is 1190. Further, the results for the Activity in data set [2] and in [3] were 0.867 µM and 0.73 nM, respectively.
For the molecule `CCCCCCCCc1ccc(CCC(N)(CO)CO)cc1`, the outcome in [5] was Active. Also, the Selectivity ratio in data set [25] worked out at 30.
With `C[C@](N)(COP(=O)(O)O)c1nc(-c2ccc(OCc3ccc(-c4ccccc4)cc3)c(C(F)(F)F)c2)cs1`, in [1], the Selectivity ratio is > 6250. The figures for the Activity in data set [2] and in data set [3] were > 10 µM and 1.6 nM, respectively.
For `CCCCCCCCOc1ccc(-c2nnc([C@@](C)(N)COP(=O)(O)O)o2)cc1C(F)(F)F`, in [1], the Selectivity ratio is > 359. Further, the figures for the Activity in data set [2] and in data set [3] were > 10 µM and 27.8 nM, respectively.
The matching figures for `NC(CO)(COP(=O)(O)O)c1nc(-c2ccc(OCc3ccc(-c4ccccc4)cc3)c(C(F)(F)F)c2)c[nH]1` (centres undefined): > 4350, > 10 µM and 2.3 nM.
Consider `CCCCCCCCOc1ccc(-c2cnc([C@@](C)(N)COP(=O)(O)O)[nH]2)cc1C(F)(F)F`, for which, in data set [1], the Selectivity ratio stood at 3340. Moreover, the Activity in data set [2] came out at 4.87 µM; in data set [3], 1.46 nM.
For the molecule `CCCCCCCCCCCCC/C=C/[C@@H](O)[C@@H](N)COP(=O)(O)O`, the figures for the EC50 in data set [20], in data set [21] and in [24] were 4.25 nM, 3.94 nM and 13 nM, respectively.
Consider `C[C@](N)(COP(=O)(O)O)c1nnc(-c2ccc(OCc3ccc(-c4ccccc4)cc3)c(C(F)(F)F)c2)s1`, for which, in [1], the Selectivity ratio is 2540. For the same molecule, the Activity in data set [2] was 4.5 µM; in data set [3] it was 1.77 nM.
On the same counts, the results for `C[C@](N)(COP(=O)(O)O)c1nc(-c2ccc(OCc3ccc(-c4ccccc4)cc3)c(C(F)(F)F)c2)c[nH]1` are 8860, 7.35 µM and 0.83 nM.
As for `Cc1nc([C@@](C)(N)COP(=O)(O)O)[nH]c1-c1ccc(OCc2ccc(-c3ccccc3)cc2)c(C(F)(F)F)c1`, in data set [1], the Selectivity ratio was 11900. The Activity in data set [2] worked out at 7.67 µM; in data set [3], 0.65 nM.
As to `CCCCCCCCOc1ccc(-c2nnc([C@@](C)(N)COP(=O)(O)O)s2)cc1C(F)(F)F`, the Selectivity ratio in [1] came to 3290. In addition, the Activity in data set [2] worked out at 1.9 µM; in [23], 119%; in [3] it was 0.52 nM. In addition, the EC50 is 0.66 nM in [19], 0.26 nM in data set [20], > 3000 nM in data set [21] and 4.57 nM in data set [24]. In addition, the Ratio EC50 in data set [22] was > 11500.
As to `CCCCCCCCOc1ccc(-c2cnc([C@@](C)(N)CO)s2)cc1C(F)(F)F`, the “inhibition (INH)” value in data set [4] is given as “Not Active”. For the same molecule, the result in data set [5] and in [11] was Active. Further, the Stability result in data set [8], in data set [16] and in data set [17] was “Stable” in each case. In addition, the permeability result in data set [10] is reported as “permeable”. The solubility entry in data set [13] is given as “soluble”. Moreover, in data set [18], the Activity result is “Dose-dependent effect”.
With `CCCCCCCCOc1ccc(-c2noc([C@@](C)(N)COP(=O)(O)O)n2)cc1C(F)(F)F`, in [1], the Selectivity ratio is > 5260. Also, the Activity in data set [2] was > 10 µM; in [3] it was 1.9 nM.
On the same counts, the results for `Cc1oc([C@@](C)(N)COP(=O)(O)O)nc1-c1ccc(OCc2ccc(-c3ccccc3)cc2)c(C(F)(F)F)c1` are > 5000, > 10 µM and 2.1 nM.
